Read-outs that look alike come from different tables or passages of the source.
Tests used:
Type in all cases: cell-based
[1] = system: MCF-7 (estrogen receptor positive breast cancer cells); assay: Anti-proliferation assay (MTS/PMS, 72 h), MCF-7; conditions: read-out: MCF-7
[2] = system: SKBr3 (estrogen receptor negative, Her2 over-expressing breast cancer cells); assay: Anti-proliferation assay (MTS/PMS, 72 h), SKBr3; conditions: read-out: SKBr3
[3] = system: SKBr3 and MCF-7 cell lines; assay: Anti-proliferative activity against both breast cancer cell lines (results in words); conditions: SKBr3 and MCF-7, Tables 1-5
Description: Cells were maintained in a 1:1 mixture of Advanced DMEM/F12 (Gibco) supplemented with non-essential amino acids, L-glutamine (2 mM), streptomycin (500 μg/mL), penicillin (100 units/mL), and 10% FBS. Cells were grown to confluence in a humidified atmosphere (37° C., 5% CO2), seeded (2000/well, 100 μL) in 96-well plates, and allowed to attach overnight. Compound at varying concentrations in DMSO (1% DMSO final concentration) was added, and cells were returned to the incubator for 72 h. At 72 h, the number of viable cells was determined using an MTS/PMS cell proliferation kit (Promega) per the manufacturer's instructions. Cells incubated in 1% DMSO were used at 100% proliferation, and values were adjusted accordingly. IC50 values were calculated from separate experiments performed in triplicate using GraphPad Prism.
The anti-proliferative activity of these compounds is evaluated against two breast cancer cell lines, SKBr3 (estrogen receptor negative, Her2 over-expressing breast cancer cells) and MCF-7 (estrogen receptor positive breast cancer cells).

[4] = Homo sapiens, MCF7, Table 1, modified benzamide coumarin derivatives
[5] = Homo sapiens, SK-BR-3, Table 1, modified benzamide coumarin derivatives
[6] = Homo sapiens, MCF7, Table 2, modified benzamide and biphenylamide derivatives (in μM)
[7] = Homo sapiens, SK-BR-3, Table 2, modified benzamide and biphenylamide derivatives (in μM)

SMILES | anti-proliferative activity (in words) [3] | IC50 [1, 6] | IC50 [2, 7] | other results
C=CCc1cc(C(=O)Nc2cc3ccc(OC4CCN(C)CC4)c(C)c3oc2=O)ccc1O [Compound 22a, 3-allyl-4-hydroxy-N-(8-methyl-7-((1-methylpiperidin-4-yl)oxy)-2-oxo-2H-chromen-3-yl)benzamide] | decreased anti-proliferative activities |  |  | IC50 [1, 4]: 2.17 ± 0.11 µM; IC50 [2, 5]: 2.43 ± 0.04 µM
Cc1c(OC2CCN(C)CC2)ccc2cc(NC(=O)c3ccc(O)cc3)c(=O)oc12 [Compound 22b, 4-hydroxy-N-(8-methyl-7-(1-methylpiperidin-4-yloxy)-2-oxo-2H-chromen-3-yl)benzamide] | decreased anti-proliferative activities |  |  | IC50 [1, 4]: 1.43 ± 0.08 µM; IC50 [2, 5]: 0.84 ± 0.18 µM
Cc1c(OC2CCN(C)CC2)ccc2cc(NC(=O)c3ccc(O)c(Cl)c3)c(=O)oc12 [Compound 22e, 3-chloro-4-hydroxy-N-(8-methyl-7-(1-methylpiperidin-4-yloxy)-2-oxo-2H-chromen-3-yl)benzamide] | diminished activity |  |  | IC50 [1, 4]: 1.48 ± 0.14 µM; IC50 [2, 5]: 2.3 ± 0.57 µM
COc1cccc(-c2cc(C(=O)Nc3cc4ccc(OC5CCN(C)CC5)c(C)c4oc3=O)ccc2OC(C)=O)c1 [Compound 32a, 3′-methoxy-5-(8-methyl-7-(1-methylpiperidin-4-yloxy)-2-oxo-2H-chromen-3-ylcarbamoyl)biphenyl-2-yl acetate] | maintains inhibitory activity | 0.91 µM | 0.92 ± 0.06 µM | 
COc1ccc(C(=O)Nc2cc3ccc(OC4CCN(C)CC4)c(C)c3oc2=O)cc1-c1cccc(OC(C)=O)c1 [Compound 32b, 2′-methoxy-5′-(8-methyl-7-(1-methylpiperidin-4-yloxy)-2-oxo-2H-chromen-3-ylcarbamoyl)biphenyl-3-yl acetate] | increases activity almost three-fold | 0.36 ± 0.06 µM | 0.29 ± 0.01 µM | 
COc1cccc(-c2cc(C(=O)Nc3cc4ccc(OC5CCN(C)CC5)c(C)c4oc3=O)ccc2O)c1 [Compound 33a, 6-hydroxy-3′-methoxy-N-(8-methyl-7-(1-methylpiperidin-4-yloxy)-2-oxo-2H-chromen-3-yl)biphenyl-3-carboxamide] | maintains inhibitory activity | 0.81 ± 0.14 µM | 0.86 ± 0.16 µM | 
COc1ccc(C(=O)Nc2cc3ccc(OC4CCN(C)CC4)c(C)c3oc2=O)cc1-c1cccc(O)c1 [Compound 33b, 3′-hydroxy-6-methoxy-N-(8-methyl-7-(1-methylpiperidin-4-yloxy)-2-oxo-2H-chromen-3-yl)biphenyl-3-carboxamide] | increases activity almost three-fold | 0.38 ± 0.08 µM | 0.31 ± 0.04 µM | 
CCCN(CCC)CCCOc1ccc2cc(NC(=O)c3ccc(O)c(CC=C(C)C)c3)c(=O)oc2c1C [Compound 68e, N-(7-(3-(dipropylamino)propoxy)-8-methyl-2-oxo-2H-chromen-3-yl)-4-hydroxy-3-(3-methylbut-2-en-1-yl)benzamide] | did not show any activity at the highest concentration |  |  | IC50 ([1]; Homo sapiens, MCF7, Table 4, alkylamino analogues): > 50 µM; IC50 ([2]; Homo sapiens, SK-BR-3, Table 4, alkylamino analogues): > 50 µM
COC(=O)CNCCCOc1ccc2cc(NC(=O)c3ccc(O)c(CC=C(C)C)c3)c(=O)oc2c1C [Compound 68l] | decreased anti-proliferative activity |  |  | IC50 ([1]; Table 4, alkylamino analogues): 2.82 ± 0.27 µM; IC50 ([2]; Table 4, alkylamino analogues): 1.06 ± 0.11 µM
CC(C)=CCc1cc(C(=O)Nc2cc3ccc(OCCCNCC(=O)O)c(C)c3oc2=O)ccc1O [Compound 68m] | decreased anti-proliferative activity |  |  | IC50 ([1]; Table 4, alkylamino analogues): 18.1 ± 5.35 µM; IC50 ([2]; Table 4, alkylamino analogues): 7.57 ± 2.86 µM
CC(C)=CCc1cc(C(=O)Nc2cc3ccc(OCCCNCC(N)=O)c(C)c3oc2=O)ccc1O [Compound 68n] | decreased anti-proliferative activity |  |  | IC50 ([1]; Table 4, alkylamino analogues): 1.46 ± 0.35 µM; IC50 ([2]; Table 4, alkylamino analogues): 2.29 ± 0.47 µM

— patent publication US10030006B2, “Coumarin based Hsp90 inhibitors with urea and ether substituents” (University of Kansas, priority 2013, dated 2018)
